Reference: patent US7309591B2, “Method for the production of resveratrol in cell cultures” (Universidad de Alicante, priority 2002, dated 2007)

Experiments:
[1] = test system: crypt formation in aberrant colon; conditions: rat model treated with a carcinogenic agent (azoxymethane); cited from earlier work
[2] = Solubility of t-resveratrol in an aqueous medium; format: physicochemical; conditions: 25° C., 5 days in the dark
Method: Five millilitres of a 11,410 mg/l solution of t-resveratrol (99% pure according to the supplier; Sigma, Madrid) in ethanol were placed in an spherical bottle, and ethanol was evaporated to dryness with a N2 current. Residual ethanol was eliminated by keeping the bottle under low pressure overnight. Five millilitres of aqueous medium were added to the solid residue, and the bottle was tightly closed and kept under shaking at 25° C. for 5 days in the dark. The resulting suspension was filtered through 0.2 μm Anopore filters, and the concentration of t-resveratrol in the filtrate was analyzed by UV spectroscopy.
The concentration of t-resveratrol in the filtrates, expressed as mg oft-resveratrol per litre of filtrate, is given in Table 2.

[3] = test system: Vitis vinifera var. Gamay rouge cells; test: Elicitation of t-resveratrol production in grapevine cell suspension, Gamay rouge; format: cell-based; conditions: cyclodextrin 50 mmol/liter in medium (BETA 15 mmol/liter); 96 hours of incubation; occasional presence of other unidentified phenolic products
Method: Vitis vinifera var. Gamay rouge: A grapevine cell line established by J. C. Pech in 1978 (ENSAT, Toulouse, France) from immature fruits of grapevine from the cultivar Gamay Fréaux has been used. The calluses were kept in 250 ml flasks containing 80 ml of Gamborg B5 basal medium (Gamborg et al. 1968. Experimental Cell Research 50:151-158) supplemented with Morel vitamins (Morel, G. 1970. “Le probléme de la transformation tumorale chez les végétaux”. Physiologie Végétale, 8:189-204), casein hydrolysate (0.25 g/l), saccharose (20 g/l) as carbonated source, and α-nafthalenacetic acid (0.1 mg/l) and kinetin (0.2 mg/l) as hormones (hereinafter, medium). This medium is adjusted to pH 6 and sterilized by applying humid heat (autoclave) for 20 min at a pressure of 121.2 kPa (1.2 athm), acquiring a solid consistency by the addition of purified agar (8 g/l) when the medium is cooled. Cell suspensions were started, from friable calluses obtained in the above described medium, in 250 ml flasks containing 80 ml of agar-free medium. The cells in liquid medium were kept in an orbital shaker at 100 rpm and 25° C., under a photoperiod of 14 hours of light (6 W/m^2) and 10 h in the dark.
(§1) For each elicitation experience, 4 g of fresh weight of cells previously washed with fresh medium and filtered were taken under sterile conditions. These cells were transferred to 50 ml flasks and replaced by the addition of 10 ml of sterile fresh medium supplemented in each case with the cyclodextrins stated below:
(§2) The flasks were incubated under the same conditions as described above for time periods ranging from 24 and 96 hours.
(§3) Once the incubation time had been completed, the cells were separated from the medium by filtration by making a slight vacuum with the help of a water pump, and the cells and the filtrate were separately collected.
(§4) For this, an aliquot of the filtrate was diluted in fresh medium, filtered through a 0.2 μm Anopore filter, and 20 μl of filtrate were injected in a LiChrospher 100 RP-18 column (250×4 mm, particle size 5 μm). Two types of solvents were used as mobile phase: solvent A, 0.05% trifluoroacetic acid in water, and solvent B, 0.05% trifluoroacetic acid in methanol:acetonitrile 60:40 vol/vol. The sample is eluted at a flow rate of 1 ml/min of the following solvent mixture: 0 min, 10% B; 5 min, 15% B; 40 min, 35% B; 45 min, 65% B; 50 min, 65% B; 55 min, 10% B; and at a column temperature of 35° C. (Dalluge et al., 1998. J. Chromatogr. A 793:265-274). […] Gamay corresponding to the start of incubation and to 96 hours of incubation in a culture medium containing RAMEB.
For routine analysis of t-resveratrol, an aliquot of the filtrate was diluted with fresh medium and its ultraviolet absorption spectrum was recorded using a Kontron Uvikon 940 spectrophotometer taking as reference the fresh medium. The concentration of t-resveratrol in the supernatant was estimated using a molar extinction coefficient at 306 nm of 26,800 M^−1 cm^−1 (Siemann, E. H. and Creasy, L. L. 1992, “Concentration of the phytoalexin resveratrol in wine”, Am. J. Enol. Vitic. 43:49-52). […] Gamay corresponding to the start of incubation and to 96 hours of incubation in a culture medium containing RAMEB.
The results obtained, expressed as mg of t-resveratrol per litre of filtrate, eliciting the cells with different cyclodextrins at concentrations of 50 mmol/litre of culture medium (except for BETA, for which the concentration corresponds to 15 mmol/litre due to its lower solubility), after 96 hours of incubation are given in Table 1.

[4] = test system: Vitis vinifera var. Monastrell green line cells; test: Elicitation of t-resveratrol production in grapevine cell suspension, Monastrell green; format: cell-based; conditions: cyclodextrin 50 mmol/liter in medium (BETA 15 mmol/liter); 96 hours of incubation; heavy presence of cis-resveratrol
Method: (§5) Vitis vinifera var. Monastrell: Two grapevine cell lines of cultivar Monastrell, one established in the dark (albino line) and another established in the presence of white light (green line) from immature fruits have been used. All manipulations and incubations for the green line were carried out in lighting conditions, but for the albino line, incubations for callus generation, development, and growth, as well as incubations of cell suspensions, were performed in the dark. For this, immature grapes approximately 5 mm in diameter were superficially sterilized by immersion in a 7% calcium hypochlorite solution for 15 minutes. After this time, and always under sterile conditions, grapes were washed 3 times with sterile bidistilled water, their seeds removed, and were divided into 4 portions. These portions (explants) were deposited until microcalluses appeared in a Petri dish containing a solid culture medium based on the medium reported by Murashige and Skoog (Murashige, T and Skoog, F. 1962. “A revised medium for rapid growth and bioassays with tobacco tissue cultures”. Physiologia Plantarum 15:473-497), supplemented with Morel vitamins, casein hydrolysate (0.25 g/l), saccharose (30 g/l) as carbonated source, and α-nafthalenacetic acid (0.1 mg/l) and kinetin (0.2 mg/l) as hormones, 8 g/l of purified agar, and adjusted to pH 6. Finally, these microcalluses were transferred to 250 ml flasks containing 80 ml of this same solid culture medium for callus development. Cell suspensions were started, from friable calluses, in 250 ml flasks containing 80 ml of Gamborg B5 basal medium, supplemented with Morel vitamins, casein hydrolysate (0.25 g/l), saccharose (20 g/l) as carbonated source, and α-nafthalenacetic acid (0.1 mg/l) and kinetin (0.2 mg/l) as hormones, in the absence of agar. The cells in liquid medium were kept in an orbital shaker at 100 rpm and 25° C.; the green line was submitted to a photoperiod of 14 hours of light (6 W/m^2) and 10 h in the dark, whereas the albino line was kept in the dark at all times.
as §1, §2, §3, §4
(§6) For routine analysis of t-resveratrol, an aliquot of the filtrate was diluted with fresh medium and its ultraviolet absorption spectrum was recorded using a Kontron Uvikon 940 spectrophotometer taking as reference the fresh medium. The concentration of t-resveratrol in the supernatant was estimated using a molar extinction coefficient at 306 nm of 26,800 M^−1 cm^−1 (Siemann, E. H. and Creasy, L. L. 1992, “Concentration of the phytoalexin resveratrol in wine”, Am. J. Enol. Vitic. 43:49-52). […]

[5] = test system: Vitis vinifera var. Monastrell albino line cells; test: Elicitation of t-resveratrol production in grapevine cell suspension, Monastrell albino; format: cell-based; conditions: cyclodextrin 50 mmol/liter in medium (BETA 15 mmol/liter); 96 hours of incubation; kept in the dark
Method: as §5, §1, §2, §3, §4, §6

[6] = test system: grapevine cells in suspension; test: Effect of cyclodextrins on grapevine cells in suspension (overall comparison, toxicity); format: cell-based, Vitis vinifera; conditions: for Capacity to induce the synthesis of t-resveratrol compared with the other cyclodextrins tested: grapevine cells in suspension, 96 hours
Method: as §1, §2
It is also noted that the intensity of the effect depends on the variety and the cell line (greater production is seen in the albino Monastrell variety than in the green Monastrell variety).

[7] = test system: grapevine cell suspensions (Vitis vinifera var. Gamay); conditions: cited from earlier work

Molecule	Trans-Resveratrol (mg/l) in filtrate, Gamay Rouge [3] [mg/L]	Trans-Resveratrol (mg/l) in filtrate, Monastrell green [4] [mg/L]	Trans-Resveratrol (mg/l) in filtrate, Monastrell albino [5] [mg/L]	further results
Oc1ccc(/C=C/c2cc(O)cc(O)c2)cc1 [t-resveratrol, trans-3,5,4′-trihydroxystilbene]				Inhibition of crypt formation in aberrant colon [1]: significant inhibition of crypt formation; Solubility of t-resveratrol ([2]; Culture medium supplemented with 6.55 mg/ml of CAVASOL ® W7 M): 767 mg t-resveratrol/liter filtrated; Solubility of t-resveratrol ([2]; Culture medium supplemented with 6.55 mg/ml of DIMEB): 735 mg t-resveratrol/liter filtrated; Solubility of t-resveratrol ([2]; Culture medium supplemented with 6.55 mg/ml of RAMEB): 786 mg t-resveratrol/liter filtrated; Solubility of t-resveratrol ([2]; Culture medium): 48.8 mg t-resveratrol/liter filtrated; Solubility of t-resveratrol ([2]; Ultrapure water): 36.5 mg t-resveratrol/liter filtrated
(2-hydroxy) propyl-β-cyclodextrin [HYPROB]	990	90	4110	
Randomly methylated β-cyclodextrin [RAMEB]	3320	101	5027	Capacity to induce the synthesis of t-resveratrol compared with the other cyclodextrins tested [6]: greater capacity to induce the synthesis of t-resveratrol
OC[C@H]1O[C@H](O[C@H]2[C@H](O)[C@@H](O)[C@@H](OC[C@H]3O[C@@H]4O[C@H]5[C@H](O)[C@@H](O)[C@@H](O[C@H]6[C@H](O)[C@@H](O)[C@@H](O[C@H]7[C@H](O)[C@@H](O)C(O[C@H]8[C@H](O)[C@@H](O)[C@@H](O[C@H]9[C@H](O)[C@@H](O)[C@@H](O[C@H]%10[C@H](O)[C@@H](O)[C@@H](O[C@H]3[C@H](O)[C@H]4O)O[C@@H]%10CO)O[C@@H]9CO)O[C@@H]8CO)O[C@@H]7CO)O[C@@H]6CO)O[C@@H]5CO)O[C@@H]2CO)[C@H](O)[C@@H](O)[C@@H]1O [MALTOSYL, Maltosyl-β-cyclodextrin]	390	20	660	
COC[C@H]1O[C@@H]2O[C@H]3[C@H](O)[C@@H](OC)[C@@H](O[C@H]4[C@H](O)[C@@H](OC)[C@@H](O[C@H]5[C@H](O)[C@@H](OC)[C@@H](O[C@H]6[C@H](O)[C@@H](OC)[C@@H](O[C@H]7[C@H](O)[C@@H](OC)[C@@H](O[C@H]8[C@H](O)[C@@H](OC)[C@@H](O[C@H]1[C@H](O)[C@H]2OC)O[C@@H]8COC)O[C@@H]7COC)O[C@@H]6COC)O[C@@H]5COC)O[C@@H]4COC)O[C@@H]3COC [DIMEB, Heptakis (2,6-di-O-methyl)-β-cyclodextrin]	3060	90	4680	Ability to induce synthesis of t-resveratrol excreted into the culture medium [7]: induce
sulphated β-cyclodextrin sodium salt [SULFOB]	0	0	0	Toxicity to grapevine cells in suspension ([6]; 50 mmol/liter in culture medium): toxic and kill the cells
Randomly methylated β-cyclodextrin [CAVASOL ® W7 M]	3280	92	4963	Capacity to induce the synthesis of t-resveratrol compared with the other cyclodextrins tested [6]: greater capacity to induce the synthesis of t-resveratrol
OC[C@H]1O[C@@H]2O[C@H]3[C@H](O)[C@@H](O)[C@@H](O[C@H]4[C@H](O)[C@@H](O)[C@@H](O[C@H]5[C@H](O)[C@@H](O)[C@@H](O[C@H]6[C@H](O)[C@@H](O)[C@@H](O[C@H]7[C@H](O)[C@@H](O)[C@@H](O[C@H]8[C@H](O)[C@@H](O)[C@@H](O[C@H]1[C@H](O)[C@H]2O)O[C@@H]8CO)O[C@@H]7CO)O[C@@H]6CO)O[C@@H]5CO)O[C@@H]4CO)O[C@@H]3CO [BETA, β-cyclodextrin]	30	0	60	
